Tests used:
[1] = tested on: EW-3 (Ewing's Sarcoma); assay: combination Emax (second highest fraction inhibited in the dose matrix, 72 h); higher = more inhibition; extreme values may be limits of the assay
How it was run: (§1)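 Cell lines grown in DMEM/F12 or RPMI with 10% FBS were plated in 1536-well plates and held 24 hours at 37°C, 5% CO2 before 72 hours of exposure to two-drug dose matrices, with DMSO typically at 0.2%. CellTiter-Glo 2.0 luminescence gave viability, which was converted to inhibition. Vehicle wells were set to 0 and blank wells to 1. Combination Emax is the second-highest inhibition in the matrix, and Bliss excess is the observed combination effect minus the expected EA + EB − EA·EB, where EA and EB are the single-agent effects.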

[2] = tested on: TGBC11TKB (Gastric Carcinoma); assay: as above
How it was run: as §1

[3] = tested on: JHH-7 (Hepatocellular Carcinoma); assay: as above
How it was run: as §1

[4] = tested on: HSC-2 (Oral Cavity Carcinoma); assay: as above
How it was run: as §1

[5] = tested on: SCC-9 (Oral Cavity Carcinoma); assay: as above
How it was run: as §1

[6] = tested on: KINGS-1 (Low Grade Glioma); assay: as above
How it was run: as §1

[7] = tested on: OCUM-1 (Gastric Carcinoma); assay: as above
How it was run: as §1

[8] = tested on: NB7 (Neuroblastoma); assay: as above
How it was run: as §1

[9] = tested on: GI-1 (Glioblastoma); assay: as above
How it was run: as §1

[10] = tested on: VMRC-LCD (Lung Adenocarcinoma); assay: as above
How it was run: as §1

[11] = tested on: NCI-N87 (Gastric Carcinoma); assay: as above
How it was run: as §1

[12] = tested on: H-EMC-SS (Chondrosarcoma); assay: as above
How it was run: as §1

[13] = tested on: LC4-1 (B-Lymphoblastic Leukemia); assay: as above
How it was run: as §1

[14] = tested on: SNU-C1 (Colorectal Carcinoma); assay: as above
How it was run: as §1

[15] = tested on: OCUB-M (Breast Carcinoma); assay: as above
How it was run: as §1

[16] = tested on: EW-3 (Ewing's Sarcoma); assay: Bliss excess, mean over the matrix (fraction); higher = more synergy
How it was run: as §1

[17] = tested on: TGBC11TKB (Gastric Carcinoma); assay: as above
How it was run: as §1

[18] = tested on: JHH-7 (Hepatocellular Carcinoma); assay: as above
How it was run: as §1

[19] = tested on: HSC-2 (Oral Cavity Carcinoma); assay: as above
How it was run: as §1

[20] = tested on: SCC-9 (Oral Cavity Carcinoma); assay: as above
How it was run: as §1

[21] = tested on: KINGS-1 (Low Grade Glioma); assay: as above
How it was run: as §1

[22] = tested on: OCUM-1 (Gastric Carcinoma); assay: as above
How it was run: as §1

[23] = tested on: NB7 (Neuroblastoma); assay: as above
How it was run: as §1

[24] = tested on: GI-1 (Glioblastoma); assay: as above
How it was run: as §1

[25] = tested on: VMRC-LCD (Lung Adenocarcinoma); assay: as above
How it was run: as §1

[26] = tested on: NCI-N87 (Gastric Carcinoma); assay: as above
How it was run: as §1

[27] = tested on: H-EMC-SS (Chondrosarcoma); assay: as above
How it was run: as §1

[28] = tested on: LC4-1 (B-Lymphoblastic Leukemia); assay: as above
How it was run: as §1

[29] = tested on: SNU-C1 (Colorectal Carcinoma); assay: as above
How it was run: as §1

[30] = tested on: OCUB-M (Breast Carcinoma); assay: as above
How it was run: as §1
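Wherever Bliss excess, mean over the matrix is given: after 72 h of two-drug dosing.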

| Structure (SMILES) | combination Emax [1] | combination Emax [2] | combination Emax [3] | combination Emax [4] | combination Emax [5] | combination Emax [6] | combination Emax [7] | combination Emax [8] | combination Emax [9] | combination Emax [10] | combination Emax [11] | combination Emax [12] | combination Emax [13] | combination Emax [14] | combination Emax [15] | Bliss excess [16] | Bliss excess [17] | Bliss excess [18] | Bliss excess [19] | Bliss excess [20] | Bliss excess [21] | Bliss excess [22] | Bliss excess [23] | Bliss excess [24] | Bliss excess [25] | Bliss excess [26] | Bliss excess [27] | Bliss excess [28] | Bliss excess [29] | Bliss excess [30] |
| --- | --- | --- | --- | --- | --- | --- | --- | --- | --- | --- | --- | --- | --- | --- | --- | --- | --- | --- | --- | --- | --- | --- | --- | --- | --- | --- | --- | --- | --- | --- |
| C=CCn1c(=O)c2cnc(Nc3ccc(N4CCN(C)CC4)cc3)nc2n1-c1cccc(C(C)(C)O)n1 [AZD1775] + CCc1c2c(nc3ccc(O)cc13)-c1cc3c(c(=O)n1C2)COC(=O)[C@]3(O)CC [SN-38] (first compound max 1 µM, partner max 0.3 µM) | 0.872 | 0.914 | 0.43 | 0.952 | 0.557 | 0.495 | 0.65 | 0.97 | 0.988 | 0.591 | 0.8 | 0.561 | 0.934 | 0.646 | 0.931 | -0.135 | -0.0338 | 0.0117 | -0.0298 | -0.0365 | -0.0275 | -0.0758 | 0.0564 | -0.0412 | -0.126 | -0.0855 | -0.0137 | -0.0519 | -0.0837 | 0.0926 |
| CN(CCO)CC[C@H](CSc1ccccc1)Nc1ccc(S(=O)(=O)NC(=O)c2ccc(N3CCC([C@@H](O)c4ccccc4-c4ccc(Cl)cc4)CC3)cc2)cc1S(=O)(=O)C(F)(F)F [AZD4320] + Nc1ccn([C@@H]2O[C@H](CO)[C@@H](O)C2(F)F)c(=O)n1 [Gemcitabine] (first compound max 1 µM, 7x7, partner max 0.3 µM) | 0.91 | 0.882 | 0.284 | 1 | 0.539 | 0.502 | 0.905 | 0.556 | 0.936 | 0.288 | 0.822 | 0.832 | 1 | 0.533 | 0.812 | -0.0522 | 0.0225 | -0.033 | 0.0613 | -0.0247 | -0.0068 | 0.0262 | -0.0153 | 0.112 | -0.0095 | -0.0058 | 0.0342 | 0.0156 | -0.0482 | 0.0471 |
| Cc1c2c(nn1C)CSCc1cc(n(C)n1)CSc1cc(c3ccccc3c1)OCCCc1c(C(=O)O)n(C)c3c-2c(Cl)ccc13 [AZD5991] + CS(=O)(=O)CCNCc1ccc(-c2ccc3ncnc(Nc4ccc(OCc5cccc(F)c5)c(Cl)c4)c3c2)o1 [Lapatinib] (first compound max 1 µM, 7x7, partner max 10 µM) | 0.597 | 0.839 | 0.348 | 0.998 | 0.984 | 0.215 | 0.239 | 0.593 | 0.577 | 0.33 | 0.967 | 0.3 | 0.97 | 0.425 | 1 | -0.028 | 0.0676 | 0.0061 | 0.0287 | 0.0313 | -0.0437 | -0.0754 | 0.0109 | -0.0104 | 0.0626 | 0.0077 | -0.0134 | 0.0538 | -0.0746 | 0.0617 |
| C[C@@H](Oc1cc(-c2cnn(C3CCNCC3)c2)cnc1N)c1c(Cl)ccc(F)c1Cl [Crizotinib] + CC1=C(C(=CC=C1)Cl)NC(=O)C2=CN=C(S2)NC3=CC(=NC(=N3)C)N4CCN(CC4)CCO [Dasatinib] (first compound max 10 µM, 7x7, partner max 2 µM) | 0.571 | 0.176 | 0.422 | 0.923 | 0.966 | 0.788 | 0.354 | 0.689 | 0.969 | 0.657 | 0.607 | 0.402 | 0.866 | 0.683 | 0.391 | -0.0728 | -0.0343 | -0.0142 | -0.0097 | 0.0429 | 0.0575 | -0.0693 | 0.0924 | 0.132 | -0.0545 | -0.0251 | -0.004 | -0.0147 | -0.056 | -0.0666 |
| N#Cc1cnc(Nc2cc(NC[C@H]3CNCCO3)c(C(F)(F)F)cn2)cn1 [SRA737] + C=CCn1c(=O)c2cnc(Nc3ccc(N4CCN(C)CC4)cc3)nc2n1-c1cccc(C(C)(C)O)n1 [AZD1775] (first compound max 10 µM, partner max 1 µM) | 0.501 | 0.919 | 0.543 | 0.584 | 0.326 | 0.412 | 0.53 | 0.849 | 0.91 | 0.778 | 0.828 | 0.354 | 0.891 | 0.789 | 0.637 | 0.0086 | 0.0401 | -0.0263 | 0.0573 | 0.0078 | 0.0035 | 0.0537 | 0.0949 | 0.0907 | -0.0067 | 0.0275 | 0.0311 | 0.0618 | 0.12 | 0.102 |
